The subject of data set [1] is CTG repeat expansion in the 3′ UTR of human DMPK gene. Briefly: DOUBLE-cut screening: CTG repeat excision by loss-of-signal ddPCR in primary DM1 patient myoblasts. The data set is classed as cell-based. The following applies: sgRNA pair RNP, mean of upstream and downstream ddPCR assays; for % of CTG repeat excision efficiency by ddPCR (DNA-PKi): 3 μM Compound 6 for 48 hrs; for % of CTG repeat excision efficiency by ddPCR (Vehicle): DMSO 48 hrs. In outline: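 Paired upstream/downstream sgRNAs, each as RNP with recombinant SaCas9 (20 pmol protein:60 pmol sgRNA), mixed 1:1 and nucleofected into primary DM1 myoblasts; cells then given DMSO or 3 μM DNA-PKi Compound 6 for 48 hrs. Genomic DNA taken 72 hrs post-nucleofection; excision is mean of upstream and downstream loss-of-signal ddPCR, normalized to DMPK exon 1 reference.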

Data set [2] deals with CUG RNA foci in primary DM1 patient myoblasts. Kind of data set: DOUBLE-cut screening: FISH staining of RNA foci in primary DM1 patient myoblasts. The following applies: sgRNA pair RNP, 72 hrs post nucleofection; for % of CUG foci free nuclei (DNA-PKi): 3 μM Compound 6 for 48 hrs; for % of CUG foci free nuclei (Vehicle): DMSO 48 hrs. It counts as cell-based, human. In outline:
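Primary DM1 patient myoblasts nucleofected with paired upstream/downstream sgRNA–SaCas9 RNPs (20 pmol protein, 60 pmol sgRNA each), then treated 48 hrs with DMSO or 3 μM DNA-PK inhibitor. At 72 hrs post nucleofection, CUG foci stained by Cy3-PNA(CAG)5 FISH with MBNL1 co-staining and quantified by high-content confocal imaging.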

Here are results for 19 substances from patent publication US20240181081A1, “Compositions and Methods for Treatment of Myotonic Dystrophy Type 1 with CRISPR/SACAS9” (Vertex Pharmaceuticals Incorporated, priority 2021, published 2024).

“SaU3 + SaD7: SaCas9 sgRNA pair, SEQ ID NOs: 3 and 15 (guide 1 ACTCCGGGGCCCCGTTGGAAGA; guide 2 GGGGCGCGGGATCCCCGAAAAA; listed as DNA, chemistry not fully specified)”: in data set [1], the “% of CTG repeat excision efficiency by ddPCR (DNA-PKi)” value amounted to 58.50% and the “% of CTG repeat excision efficiency by ddPCR (Vehicle)” value amounted to 35.98%. Further, in data set [2], the “% of CUG foci free nuclei (DNA-PKi)” value is listed as 76.54% and the “% of CUG foci free nuclei (Vehicle)” value came out at 49.49%.

In the case of “SaU3 + SaD10: SaCas9 sgRNA pair, SEQ ID NOs: 3 and 18 (guide 1 ACTCCGGGGCCCCGTTGGAAGA; guide 2 TTGGGGGTCCTGTAGCCTGTCA; listed as DNA, chemistry not fully specified)”, in data set [1], the “% of CTG repeat excision efficiency by ddPCR (DNA-PKi)” value is listed as 69.50% and the “% of CTG repeat excision efficiency by ddPCR (Vehicle)” value is listed as 44.56%. In data set [2], the “% of CUG foci free nuclei (DNA-PKi)” value was determined as 86.88% and the “% of CUG foci free nuclei (Vehicle)” value came out at 75.19%.

For “SaU3 + SaD11: SaCas9 sgRNA pair, SEQ ID NOs: 3 and 19 (guide 1 ACTCCGGGGCCCCGTTGGAAGA; guide 2 CAAAACGTGGATTGGGGTTGTT; listed as DNA, chemistry not fully specified)”, in data set [1], the “% of CTG repeat excision efficiency by ddPCR (DNA-PKi)” value came to 58.33% and the “% of CTG repeat excision efficiency by ddPCR (Vehicle)” value was 32.84%. In data set [2], the “% of CUG foci free nuclei (DNA-PKi)” value came to 73.87% and the “% of CUG foci free nuclei (Vehicle)” value was 50.28%.

“SaU3 + SaD12: SaCas9 sgRNA pair, SEQ ID NOs: 3 and 20 (guide 1 ACTCCGGGGCCCCGTTGGAAGA; guide 2 TCAGTGCATCCAAAACGTGGAT; listed as DNA, chemistry not fully specified)”: in data set [1], the “% of CTG repeat excision efficiency by ddPCR (DNA-PKi)” value turned out to be 59.96% and the “% of CTG repeat excision efficiency by ddPCR (Vehicle)” value is given as 38.05%. Moreover, in data set [2], the “% of CUG foci free nuclei (DNA-PKi)” value came out at 83.21% and the “% of CUG foci free nuclei (Vehicle)” value is 74.46%.

With “SaU3 + SaD13: SaCas9 sgRNA pair, SEQ ID NOs: 3 and 21 (guide 1 ACTCCGGGGCCCCGTTGGAAGA; guide 2 CCCAACAACCCCAATCCACGTT; listed as DNA, chemistry not fully specified)”, in data set [1], the “% of CTG repeat excision efficiency by ddPCR (DNA-PKi)” value was 57.82% and the “% of CTG repeat excision efficiency by ddPCR (Vehicle)” value is 30.34%. Besides, in data set [2], the “% of CUG foci free nuclei (DNA-PKi)” value stood at 74.02% and the “% of CUG foci free nuclei (Vehicle)” value is given as 38.07%.

As to “SaU3 + SaD15: SaCas9 sgRNA pair, SEQ ID NOs: 3 and 23 (guide 1 ACTCCGGGGCCCCGTTGGAAGA; guide 2 GACAATAAATACCGAGGAATGT; listed as DNA, chemistry not fully specified)”, in data set [1], the “% of CTG repeat excision efficiency by ddPCR (DNA-PKi)” value stood at 65.28% and the “% of CTG repeat excision efficiency by ddPCR (Vehicle)” value is recorded as 37.42%. Moreover, in data set [2], the “% of CUG foci free nuclei (DNA-PKi)” value stood at 86.64% and the “% of CUG foci free nuclei (Vehicle)” value is 74.00%.

Take “SaU3 + SaD17: SaCas9 sgRNA pair, SEQ ID NOs: 3 and 25 (guide 1 ACTCCGGGGCCCCGTTGGAAGA; guide 2 TTTATTCGCGAGGGTCGGGGGT; listed as DNA, chemistry not fully specified)”: in data set [1], the “% of CTG repeat excision efficiency by ddPCR (DNA-PKi)” value came out at 56.80% and the “% of CTG repeat excision efficiency by ddPCR (Vehicle)” value is reported as 31.18%. Besides, in data set [2], the “% of CUG foci free nuclei (DNA-PKi)” value worked out at 77.22% and the “% of CUG foci free nuclei (Vehicle)” value was 53.10%.

For “SaU3 + SaD18: SaCas9 sgRNA pair, SEQ ID NOs: 3 and 26 (guide 1 ACTCCGGGGCCCCGTTGGAAGA; guide 2 GGGCCTTTTATTCGCGAGGGTC; listed as DNA, chemistry not fully specified)”, in data set [1], the “% of CTG repeat excision efficiency by ddPCR (DNA-PKi)” value was found to be 50.13% and the “% of CTG repeat excision efficiency by ddPCR (Vehicle)” value was 21.51%. Moreover, in data set [2], the “% of CUG foci free nuclei (DNA-PKi)” value is reported as 71.73% and the “% of CUG foci free nuclei (Vehicle)” value was 33.15%.

With “SaU3 + SaD19: SaCas9 sgRNA pair, SEQ ID NOs: 3 and 27 (guide 1 ACTCCGGGGCCCCGTTGGAAGA; guide 2 AGGACCCCCACCCCCGACCCTC; listed as DNA, chemistry not fully specified)”, in data set [1], the “% of CTG repeat excision efficiency by ddPCR (DNA-PKi)” value turned out to be 53.36% and the “% of CTG repeat excision efficiency by ddPCR (Vehicle)” value is 32.67%. Also, in data set [2], the “% of CUG foci free nuclei (DNA-PKi)” value is given as 81.67% and the “% of CUG foci free nuclei (Vehicle)” value was found to be 57.16%.

As to “SaU3 + SaD20: SaCas9 sgRNA pair, SEQ ID NOs: 3 and 28 (guide 1 ACTCCGGGGCCCCGTTGGAAGA; guide 2 AGATGGAGGGCCTTTTATTCGC; listed as DNA, chemistry not fully specified)”, in data set [1], the “% of CTG repeat excision efficiency by ddPCR (DNA-PKi)” value is listed as 64.44% and the “% of CTG repeat excision efficiency by ddPCR (Vehicle)” value was 40.12%. Further, in data set [2], the “% of CUG foci free nuclei (DNA-PKi)” value is on record as 83.99% and the “% of CUG foci free nuclei (Vehicle)” value stood at 72.56%.

Take “SaU4 + SaD3: SaCas9 sgRNA pair, SEQ ID NOs: 4 and 11 (guide 1 CCAGTTCACAACCGCTCCGAGC; guide 2 CAACGATAGGTGGGGGTGCGTG; listed as DNA, chemistry not fully specified)”: in data set [1], the “% of CTG repeat excision efficiency by ddPCR (DNA-PKi)” value is listed as 56.38% and the “% of CTG repeat excision efficiency by ddPCR (Vehicle)” value is reported as 44.46%. Besides, in data set [2], the “% of CUG foci free nuclei (DNA-PKi)” value is 80.39% and the “% of CUG foci free nuclei (Vehicle)” value is recorded as 60.98%.

Consider “SaU4 + SaD6: SaCas9 sgRNA pair, SEQ ID NOs: 4 and 14 (guide 1 CCAGTTCACAACCGCTCCGAGC; guide 2 CTTTTGCCAAACCCGCTTTTTC; listed as DNA, chemistry not fully specified)”, for which, in data set [1], the “% of CTG repeat excision efficiency by ddPCR (DNA-PKi)” value was 48.99% and the “% of CTG repeat excision efficiency by ddPCR (Vehicle)” value is listed as 28.23%. Also, in data set [2], the “% of CUG foci free nuclei (DNA-PKi)” value is 67.36% and the “% of CUG foci free nuclei (Vehicle)” value came to 37.76%.

As for “SaU4 + SaD7: SaCas9 sgRNA pair, SEQ ID NOs: 4 and 15 (guide 1 CCAGTTCACAACCGCTCCGAGC; guide 2 GGGGCGCGGGATCCCCGAAAAA; listed as DNA, chemistry not fully specified)”, in data set [1], the “% of CTG repeat excision efficiency by ddPCR (DNA-PKi)” value was 55.59% and the “% of CTG repeat excision efficiency by ddPCR (Vehicle)” value is on record as 39.17%. Besides, in data set [2], the “% of CUG foci free nuclei (DNA-PKi)” value turned out to be 78.79% and the “% of CUG foci free nuclei (Vehicle)” value was found to be 58.50%.

Take “SaU4 + SaD11: SaCas9 sgRNA pair, SEQ ID NOs: 4 and 19 (guide 1 CCAGTTCACAACCGCTCCGAGC; guide 2 CAAAACGTGGATTGGGGTTGTT; listed as DNA, chemistry not fully specified)”: in data set [1], the “% of CTG repeat excision efficiency by ddPCR (DNA-PKi)” value amounted to 54.55% and the “% of CTG repeat excision efficiency by ddPCR (Vehicle)” value is recorded as 36.98%. In data set [2], the “% of CUG foci free nuclei (DNA-PKi)” value is 78.29% and the “% of CUG foci free nuclei (Vehicle)” value is recorded as 58.71%.

Take “SaU4 + SaD12: SaCas9 sgRNA pair, SEQ ID NOs: 4 and 20 (guide 1 CCAGTTCACAACCGCTCCGAGC; guide 2 TCAGTGCATCCAAAACGTGGAT; listed as DNA, chemistry not fully specified)”: in data set [1], the “% of CTG repeat excision efficiency by ddPCR (DNA-PKi)” value is 59.06% and the “% of CTG repeat excision efficiency by ddPCR (Vehicle)” value was found to be 42.13%. Further, in data set [2], the “% of CUG foci free nuclei (DNA-PKi)” value was found to be 87.22% and the “% of CUG foci free nuclei (Vehicle)” value is 82.10%.

Consider “SaU4 + SaD13: SaCas9 sgRNA pair, SEQ ID NOs: 4 and 21 (guide 1 CCAGTTCACAACCGCTCCGAGC; guide 2 CCCAACAACCCCAATCCACGTT; listed as DNA, chemistry not fully specified)”, for which, in data set [1], the “% of CTG repeat excision efficiency by ddPCR (DNA-PKi)” value came out at 54.46% and the “% of CTG repeat excision efficiency by ddPCR (Vehicle)” value came to 32.38%. In data set [2], the “% of CUG foci free nuclei (DNA-PKi)” value worked out at 73.71% and the “% of CUG foci free nuclei (Vehicle)” value is on record as 43.83%.

Turning to “SaU4 + SaD15: SaCas9 sgRNA pair, SEQ ID NOs: 4 and 23 (guide 1 CCAGTTCACAACCGCTCCGAGC; guide 2 GACAATAAATACCGAGGAATGT; listed as DNA, chemistry not fully specified)”, in data set [1], the “% of CTG repeat excision efficiency by ddPCR (DNA-PKi)” value turned out to be 58.99% and the “% of CTG repeat excision efficiency by ddPCR (Vehicle)” value stood at 39.70%. In addition, in data set [2], the “% of CUG foci free nuclei (DNA-PKi)” value turned out to be 85.73% and the “% of CUG foci free nuclei (Vehicle)” value is given as 79.84%.

“SaU4 + SaD17: SaCas9 sgRNA pair, SEQ ID NOs: 4 and 25 (guide 1 CCAGTTCACAACCGCTCCGAGC; guide 2 TTTATTCGCGAGGGTCGGGGGT; listed as DNA, chemistry not fully specified)”: in data set [1], the “% of CTG repeat excision efficiency by ddPCR (DNA-PKi)” value came out at 55.51% and the “% of CTG repeat excision efficiency by ddPCR (Vehicle)” value came to 35.01%. In addition, in data set [2], the “% of CUG foci free nuclei (DNA-PKi)” value came out at 79.31% and the “% of CUG foci free nuclei (Vehicle)” value is listed as 60.96%.

Regarding “SaU4 + SaD18: SaCas9 sgRNA pair, SEQ ID NOs: 4 and 26 (guide 1 CCAGTTCACAACCGCTCCGAGC; guide 2 GGGCCTTTTATTCGCGAGGGTC; listed as DNA, chemistry not fully specified)”, in data set [1], the “% of CTG repeat excision efficiency by ddPCR (DNA-PKi)” value stood at 45.55% and the “% of CTG repeat excision efficiency by ddPCR (Vehicle)” value was found to be 26.25%. Moreover, in data set [2], the “% of CUG foci free nuclei (DNA-PKi)” value was 69.76% and the “% of CUG foci free nuclei (Vehicle)” value stood at 36.81%.
